Patent publication US11407788B2, “Prostate-specific membrane antigen (PSMA) targeting peptides” (THE CURATORS OF THE UNIVERSITY OF MISSOURI, priority 2016, dated 2022)

How the values were obtained:
LNCaP cells = experiment: Competitive inhibition of peptides and their corresponding phages; conditions: for competitive inhibition of peptide to its corresponding phage: peptides at 100 μM
Procedure: Competitive binding inhibition between selected phages and their encoded peptides was examined in this study. […] The bound phages were recovered and titered as described above.
It was first evaluated whether these phages bind to LNCaP cells via specific interaction with their encoding peptides. LNCaP cells were pre-incubated with the encoding peptides, followed by washing and incubation with the corresponding phages. The bound phages were then eluted and titered.

[1] = tested on: PSMA-positive prostate cancer C4-2 cell line; experiment: Apparent Kd of FAM-labeled peptides by flow cytometry in C4-2 cells; assay type: cell-based
[2] = tested on: PSMA-positive LNCaP cells; experiment: Apparent Kd of FAM-labeled peptides by flow cytometry in LNCaP cells; assay type: cell-based; conditions: 4° C., 1 h
PSMA = PSMA (Homo sapiens, UniProt Q04609); conditions: Aggarwal et al. 2006; read-out: IC50 of inhibition of PSMA enzymatic activity; cited from earlier work
Sequence of PSMA (Q04609 whole entry): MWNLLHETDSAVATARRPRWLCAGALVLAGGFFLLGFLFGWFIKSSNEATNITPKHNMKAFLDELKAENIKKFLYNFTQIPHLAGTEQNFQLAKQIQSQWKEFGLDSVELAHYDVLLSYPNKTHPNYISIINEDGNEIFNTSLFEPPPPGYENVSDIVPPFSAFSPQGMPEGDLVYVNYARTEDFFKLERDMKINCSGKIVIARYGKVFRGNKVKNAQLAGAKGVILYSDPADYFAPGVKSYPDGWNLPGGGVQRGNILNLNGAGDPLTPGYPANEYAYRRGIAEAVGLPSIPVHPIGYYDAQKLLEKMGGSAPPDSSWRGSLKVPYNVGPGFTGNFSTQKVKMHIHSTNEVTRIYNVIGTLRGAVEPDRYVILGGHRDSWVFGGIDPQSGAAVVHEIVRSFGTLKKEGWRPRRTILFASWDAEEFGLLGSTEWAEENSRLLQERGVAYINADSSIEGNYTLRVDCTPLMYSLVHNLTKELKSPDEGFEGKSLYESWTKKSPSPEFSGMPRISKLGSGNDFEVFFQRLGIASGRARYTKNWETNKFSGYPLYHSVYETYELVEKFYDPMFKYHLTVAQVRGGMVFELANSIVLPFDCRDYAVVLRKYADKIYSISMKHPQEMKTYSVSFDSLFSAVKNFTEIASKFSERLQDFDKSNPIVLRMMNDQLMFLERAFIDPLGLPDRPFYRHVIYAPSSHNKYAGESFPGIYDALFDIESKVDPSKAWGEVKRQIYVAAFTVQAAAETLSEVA

Row | Sequence | competitive inhibition of peptide to its corresponding phage (LNCaP cells) | other results
1 | YPTDWLWHGHNK | negligible | –
2 | NRPDSAQFWLHH | negligible | competitive inhibition of peptide to its corresponding phage at various concentrations (LNCaP cells; series of concentrations): does not affect the binding
3 | QPGHAILAQHPT | negligible | –
4 | HSDNHYRPADKL | negligible | affinity to C4-2 cells compared to LNCaP cells [1]: less affinity
5 | YVNSHSILGYTG | relatively weaker competitive inhibition | –
6 | WQPDTAHHWATL | – | Kd [2]: 23.6 µM; IC50 (PSMA): 23 µM
7 | SMAGEQISWALI | negligible | –
8 | KYLAYPDSVHIW | – | Kd [2]: 14.4 µM
9 | TGHLYPTRMEIQ | relatively weaker competitive inhibition | affinity to C4-2 cells compared to LNCaP cells [1]: less affinity
